{"source": "patent US20240108602A1", "about": "“TREATMENT OF MENTAL DISORDERS” (GH Research Ireland Limited, priority 2022, published 2024)", "key": {"[1]": {"system": "human hepatocytes", "assay": "Metabolite identification after incubation of 5-MeO-DMT with human hepatocytes", "conditions": "5-MeO-DMT free base 10 μM, up to 120 minutes", "method": "For incubations with cryopreserved hepatocytes, the 2 mM stock solution was diluted with Leibovitz L-15 medium to a concentration of 20 μM or 2 μM. An aliquot (250 μL) of the 20 μM and 2 μM test substance formulations was added to each hepatocyte incubation sample (250 μL), as appropriate, so that the final test substance concentration in the incubations was 10 μM or 1 μM, respectively, and incubations contained less than 1% (v/v) solvent.\nIncubations were performed at ca. 37° C. in a shaking water bath (total incubation volume 0.5 mL). For 1 μM, incubations were terminated after 0, 5, 10, 20, 30, 60 and 120 minutes, by the addition of ice-cold acetonitrile (0.5 mL).\nThe samples were vortex mixed and centrifuged at ca 13,000 rpm for 10 minutes at room temperature. Following centrifugation, the protein-free supernatants were removed for analysis.\nBlank control incubations were carried out with Leibovitz L-15 medium in place of the test substance. No cells control samples were performed with Leibovitz L-15 medium in place of hepatocytes. Aliquots of the blank control samples were taken at 120 minutes, while no cells control samples were taken at 0, 30 and 120 for 1 μM incubations and at 0 and 120 minutes for 10 μM incubations.\nAll 1 μM incubations were performed in duplicate, while all 10 μM incubations were performed in singlet. All samples were stored at −80° C. (nominal) prior to analysis.\nPrior to sample analysis a 100 μL aliquot of each sample was evaporated to near dryness under a steady stream of nitrogen at room temperature, and subsequently reconstituted in 50 μL of mobile phase A (0.1% formic acid in water). Each sample (0, 30 and 120-minute, 10 μM) was analysed using accurate mass LC-MS to determine relative levels of parent compound at each time-point, and determine the profile of metabolites formed. Appropriate blank and control samples were also analysed. The 10 and 60-minute, 10 μM incubation samples were not analysed and were stored at −80° C. (nominal).\nData were interrogated for the presence of metabolites by comparison of retention times with the test substance reference standard and based on the accurate masses of potential metabolites using screening software (UNIFI version 1.9.4), and user defined search parameters. To confirm a suspected metabolite, the measured accurate mass of the peak detected in the sample used for structural elucidation had to be within 5 ppm of the theoretical mass in order to confirm the molecular formula."}, "[2]": {"system": "human hepatocytes", "assay": "Metabolic stability in Hμrel human hepatocyte co-culture model"}, "[3]": {"assay": "5-MeO-DMT, 5-MIAA and bufotenine in urine, serum and breastmilk of a lactating PPD patient, LC-MS/MS", "method": "The second patients was lactating, and, per the clinical trial protocol, breastmilk samples were collected pre-dosing and at multiple timepoints after administration of the last dose. […] Similar analyses were carried out on patient serum and urine samples."}, "[4]": {"system": "human plasma protein", "assay": "Plasma binding of 5-MIAA (unbound fraction)", "assay_type": "in vitro ADME", "method": "Binding to human plasma protein was determined. Reported are the unbound fraction (fu) for three replicates as well as the mean unbound fraction, the standard deviation and the mean % recovery (Table 8)."}, "[5]": {"conditions": "1.0 hrs after last dose (6 mg then 12 mg 5-MeO-DMT)"}}, "note": "“Also recorded” adds a separate entry of the source."}
{"smiles": "COc1ccc2[nH]cc(CC[N+](C)(C)[O-])c2c1", "note": "[5-MeO-DMT-N-oxide]", "values": [{"measurement": "Relative Proportion of compound after incubation of 5-MeO-DMT", "setting": "[1]", "value": 1, "unit": "%"}]}
{"smiles": "COc1ccc2[nH]cc(CCO)c2c1", "note": "[5-methoxytryptophol, 5-Methoxyindole-3-ethanol]", "values": [{"measurement": "Relative Proportion of compound after incubation of 5-MeO-DMT", "setting": "[1]", "value": 25, "unit": "%"}, {"measurement": "relative LC/MS peak area", "setting": "[2]; 1 μM Stromal cells, 0 h", "value": 100, "unit": "%"}, {"measurement": "relative LC/MS peak area", "setting": "[2]; 1 μM Stromal cells, 4 h", "value": 97, "unit": "%"}, {"measurement": "relative LC/MS peak area", "setting": "[2]; 1 μM Stromal cells, 8 h", "value": 107, "unit": "%"}, {"measurement": "relative LC/MS peak area", "setting": "[2]; 1 μM Stromal cells, 24 h", "value": 94, "unit": "%"}, {"measurement": "relative LC/MS peak area", "setting": "[2]; 1 μM Stromal cells, 48 h", "value": 102, "unit": "%"}, {"measurement": "relative LC/MS peak area", "setting": "[2]; 1 μM Stromal cells, 72 h", "value": 104, "unit": "%"}, {"measurement": "relative LC/MS peak area", "setting": "[2]; 10 μM Stromal cells, 0 h", "value": 100, "unit": "%"}, {"measurement": "relative LC/MS peak area", "setting": "[2]; 10 μM Stromal cells, 4 h", "value": 99, "unit": "%"}, {"measurement": "relative LC/MS peak area", "setting": "[2]; 10 μM Stromal cells, 8 h", "value": 105, "unit": "%"}, {"measurement": "relative LC/MS peak area", "setting": "[2]; 10 μM Stromal cells, 24 h", "value": 86, "unit": "%"}, {"measurement": "relative LC/MS peak area", "setting": "[2]; 10 μM Stromal cells, 48 h", "value": 98, "unit": "%"}, {"measurement": "relative LC/MS peak area", "setting": "[2]; 10 μM Stromal cells, 72 h", "value": 104, "unit": "%"}, {"measurement": "metabolic turnover", "setting": "[2]; human hepatocytes", "value": "high metabolic turnover"}, {"measurement": "half-life", "setting": "[2]; human hepatocytes, 1 μM", "value": 2.37, "unit": "h"}, {"measurement": "in vitro intrinsic clearance", "setting": "[2]; human hepatocytes, 1 μM", "value": 16.2, "unit": "μl/min/million cells"}, {"measurement": "disappearance with stromal cell controls", "setting": "[2]; stromal cell controls", "value": "no disappearance"}]}
{"smiles": "CN(C)CCc1c[nH]c2ccc(O)cc12", "note": "[Bufotenine]", "values": [{"measurement": "Relative Proportion of compound after incubation of 5-MeO-DMT", "setting": "[1]", "value": 5, "unit": "%"}, {"measurement": "Breastmilk concentration", "setting": "[3]; [5]", "value": "BLQ (BLQ: Below limit of quantification. The lower limit of quantification is 25 pg/ml for both 5-MeO-DMT and 5-MIAA in both serum and breastmilk; it is 25 pg/ml in urine for 5-MeO-DMT and 250 pg/ml for 5-MIAA in urine.)"}, {"measurement": "Serum concentration", "setting": "[3]; [5]", "value": "BLQ (BLQ: Below limit of quantification. The lower limit of quantification is 25 pg/ml for both 5-MeO-DMT and 5-MIAA in both serum and breastmilk; it is 25 pg/ml in urine for 5-MeO-DMT and 250 pg/ml for 5-MIAA in urine.)"}, {"measurement": "Breastmilk concentration", "setting": "[3]; 2.5 hrs after last dose", "value": "BLQ (BLQ: Below limit of quantification. The lower limit of quantification is 25 pg/ml for both 5-MeO-DMT and 5-MIAA in both serum and breastmilk; it is 25 pg/ml in urine for 5-MeO-DMT and 250 pg/ml for 5-MIAA in urine.)"}, {"measurement": "Serum concentration", "setting": "[3]; 2.5 hrs after last dose", "value": "BLQ (BLQ: Below limit of quantification. The lower limit of quantification is 25 pg/ml for both 5-MeO-DMT and 5-MIAA in both serum and breastmilk; it is 25 pg/ml in urine for 5-MeO-DMT and 250 pg/ml for 5-MIAA in urine.)"}, {"measurement": "Urine concentration", "setting": "[3]; 2.5 hrs after last dose", "value": 32.3, "unit": "pg/mL"}, {"measurement": "Breastmilk concentration", "setting": "[3]; 8.5 hrs after last dose", "value": "BLQ (BLQ: Below limit of quantification. The lower limit of quantification is 25 pg/ml for both 5-MeO-DMT and 5-MIAA in both serum and breastmilk; it is 25 pg/ml in urine for 5-MeO-DMT and 250 pg/ml for 5-MIAA in urine.)"}, {"measurement": "Urine concentration", "setting": "[3]; 8.5 hrs after last dose", "value": "BLQ (BLQ: Below limit of quantification. The lower limit of quantification is 25 pg/ml for both 5-MeO-DMT and 5-MIAA in both serum and breastmilk; it is 25 pg/ml in urine for 5-MeO-DMT and 250 pg/ml for 5-MIAA in urine.)"}, {"measurement": "Breastmilk concentration", "setting": "[3]; 24.0 hrs after last dose", "value": "BLQ (BLQ: Below limit of quantification. The lower limit of quantification is 25 pg/ml for both 5-MeO-DMT and 5-MIAA in both serum and breastmilk; it is 25 pg/ml in urine for 5-MeO-DMT and 250 pg/ml for 5-MIAA in urine.)"}, {"measurement": "Serum concentration", "setting": "[3]; 24.0 hrs after last dose", "value": "BLQ (BLQ: Below limit of quantification. The lower limit of quantification is 25 pg/ml for both 5-MeO-DMT and 5-MIAA in both serum and breastmilk; it is 25 pg/ml in urine for 5-MeO-DMT and 250 pg/ml for 5-MIAA in urine.)"}, {"measurement": "Urine concentration", "setting": "[3]; 24.0 hrs after last dose", "value": "BLQ (BLQ: Below limit of quantification. The lower limit of quantification is 25 pg/ml for both 5-MeO-DMT and 5-MIAA in both serum and breastmilk; it is 25 pg/ml in urine for 5-MeO-DMT and 250 pg/ml for 5-MIAA in urine.)"}, {"measurement": "Breastmilk concentration", "setting": "[3]; 120.0 hrs after last dose", "value": "BLQ (BLQ: Below limit of quantification. The lower limit of quantification is 25 pg/ml for both 5-MeO-DMT and 5-MIAA in both serum and breastmilk; it is 25 pg/ml in urine for 5-MeO-DMT and 250 pg/ml for 5-MIAA in urine.)"}, {"measurement": "Serum concentration", "setting": "[3]; 120.0 hrs after last dose", "value": "BLQ (BLQ: Below limit of quantification. The lower limit of quantification is 25 pg/ml for both 5-MeO-DMT and 5-MIAA in both serum and breastmilk; it is 25 pg/ml in urine for 5-MeO-DMT and 250 pg/ml for 5-MIAA in urine.)"}, {"measurement": "Urine concentration", "setting": "[3]; 120.0 hrs after last dose", "value": "BLQ (BLQ: Below limit of quantification. The lower limit of quantification is 25 pg/ml for both 5-MeO-DMT and 5-MIAA in both serum and breastmilk; it is 25 pg/ml in urine for 5-MeO-DMT and 250 pg/ml for 5-MIAA in urine.)"}, {"measurement": "detection in serum and breastmilk", "setting": "[3]; any time point", "value": "absence of bufotenine; also recorded: not detected"}, {"measurement": "Breastmilk concentration", "setting": "[3]; −24.0 hrs (pre-dosing)", "value": "BLQ (BLQ: Below limit of quantification. The lower limit of quantification is 25 pg/ml for both 5-MeO-DMT and 5-MIAA in both serum and breastmilk; it is 25 pg/ml in urine for 5-MeO-DMT and 250 pg/ml for 5-MIAA in urine.)"}, {"measurement": "Serum concentration", "setting": "[3]; −24.0 hrs (pre-dosing)", "value": "BLQ (BLQ: Below limit of quantification. The lower limit of quantification is 25 pg/ml for both 5-MeO-DMT and 5-MIAA in both serum and breastmilk; it is 25 pg/ml in urine for 5-MeO-DMT and 250 pg/ml for 5-MIAA in urine.)"}, {"measurement": "Urine concentration", "setting": "[3]; −24.0 hrs (pre-dosing)", "value": "BLQ (BLQ: Below limit of quantification. The lower limit of quantification is 25 pg/ml for both 5-MeO-DMT and 5-MIAA in both serum and breastmilk; it is 25 pg/ml in urine for 5-MeO-DMT and 250 pg/ml for 5-MIAA in urine.)"}]}
{"smiles": "CC(=O)CC(c1ccccc1)c1c(O)c2ccccc2oc1=O", "note": "(centres unmarked) [Warfarin, reference compound]", "values": [{"measurement": "Mean % Recovery", "setting": "[4]", "value": 78.1, "unit": "%"}, {"measurement": "Mean fu", "setting": "[4]", "value": 0.0377}, {"measurement": "unbound fraction (fu), Replicate 1", "setting": "[4]", "value": 0.0418}, {"measurement": "unbound fraction (fu), Replicate 2", "setting": "[4]", "value": 0.0356}, {"measurement": "unbound fraction (fu), Replicate 3", "setting": "[4]", "value": 0.0358}]}
